Measurements taken from publication PMC12645589, “mPEG@ELA-11 Alleviates Atherosclerosis via AKT-ER Stress-Mediated Macrophage Modulation” (BME Frontiers, 2025).
Like-named read-outs stand apart in the source and are kept apart here.

What was measured:
RAW264.7 macrophages [1] = experiment: Foam cell formation, Oil Red O staining; assay type: cell-based, murine; conditions: n = 3; for effect of co-treatment on the protective (foam cell inhibiting) effect of ELA-11: ox-LDL 50 μg/ml 48 h + ELA-11, modulator 1 μM, vs ox-LDL + ELA-11 group
Experimental: To assess the impact of ELA-11 on foam cell formation, RAW264.7 macrophages were pretreated with ELA-11 (1 μM) for 2 h before being exposed to ox-LDL (50 μg/ml) for 48 h.
(§1) For foam cell formation assays, cells were seeded in 6-well plates at 1 × 10^6 cells/well. Cells were pretreated with ELA-11 (1 μM) for 2 h before exposure to oxidized low-density lipoprotein (ox-LDL, 50 or 100 μg/ml) for 48 h. Where indicated, cells were cotreated with tunicamycin (1 μM, ER stress activator), ML221 (1 μM, APJ receptor antagonist), Recilisib (1 μM, AKT activator), or 4-PBA (1 μM, ER stress inhibitor).
Cells were fixed with 4% paraformaldehyde for 30 min, rinsed with 60% isopropanol, and stained with Oil Red O working solution for 10 min. After washing with distilled water, stained cells were imaged using a light microscope. For quantification, staining intensity was analyzed using ImageJ software.

RAW264.7 macrophages [2] = experiment: CCK-8 cell viability assay; assay type: cell-based, murine
Experimental: Finally, the cytotoxicity of mPEG@ELA-11 was assessed using the CCK-8 assay. […] The absence of cytotoxicity is a critical factor for the potential clinical application of mPEG@ELA-11.
Cell viability was assessed using the CCK-8 kit (Biosharp, China) according to the manufacturer’s instructions. Cells were seeded in 96-well plates at 1 × 10^5 cells/ml and treated with various compounds for 24 to 72 h before analysis.

ApoE^-/- mice [3] = experiment: Biosafety evaluation in mice (histology, body weight, blood biochemistry); conditions: for histopathological changes in major organs (heart, liver, spleen, lungs, and kidneys): 1 mg/kg every 3 days; for tissue morphology of heart, liver, spleen, lungs, and kidneys (H&E), long-term toxicity: 1 mg/kg via the tail vein, once every 3 days for 2 consecutive months, n = 6; for changes in body weight: throughout the treatment period, n=6, p>0.05
Experimental: To evaluate the safety and biocompatibility of the treatments, histological analysis was performed on major organs (heart, liver, spleen, lungs, and kidneys) from all groups.
At the study endpoint, mice were euthanized under isoflurane anesthesia. Blood was collected for biochemical analysis, and the entire aorta was harvested from the ascending aorta to the iliac bifurcation.
Histological examination of the heart, liver, spleen, lungs, and kidneys in different treatments groups which were respectively injected with the same dose (1 mg/kg) of PBS, ELA-11, and mPEG@ELA-11 via the tail vein, once every 3 days for 2 consecutive months. […] Representative images were chosen from n = 6 mice per group.

[4] = test system: ER stress-associated proteins (p-PERK, p-eIF2α, CHOP, and ATF4); experiment: Western blot of ER stress markers; assay type: cell-based, murine; conditions: ox-LDL + ELA-11 + modulator (1 μM), n = 3
Experimental: as §1
(§2) Cells were lysed in RIPA buffer supplemented with protease and phosphatase inhibitors. Equal protein amounts were separated by 10% sodium dodecyl sulfate–polyacrylamide gel electrophoresis, followed by transfer to polyvinylidene fluoride membranes. Membranes were blocked with 5% milk and incubated overnight at 4 °C with primary antibodies against p-PERK, PERK, p-eIF2α, eIF2α, ATF4, CHOP, p-AKT, AKT, and GAPDH, followed by horseradish peroxidase-conjugated secondary antibodies. Protein bands were visualized using enhanced chemiluminescence reagents.

AKT phosphorylation = experiment: Western blot of AKT phosphorylation; assay type: cell-based, murine; conditions: ox-LDL + ELA-11 + modulator (1 μM), n = 3
Experimental: as §1, §2

ApoE^-/- mice [5] = experiment: Atherosclerosis in ApoE-/- mice fed a high-fat diet; assay type: in vivo; conditions: HFD
From the text: To evaluate the therapeutic efficacy of ELA-11 in AS, ApoE^-/- mice fed a high-fat diet (HFD) were utilized as an established AS model. Male ApoE^-/- mice were randomly allocated into 3 groups (n = 6 per group): a control group fed a normal chow diet (NCD), an HFD group treated with phosphate-buffered saline (HFD + PBS), and a treatment group treated with ELA-11 (HFD + ELA-11). ApoE^-/- mice were initiated on HFD at 8 weeks of age. Four weeks later, at the beginning of the fifth week of HFD feeding, mice in the HFD + ELA-11 group received intraperitoneal injections of ELA-11 (1 mg/kg) every 3 days for a total of 19 injections. Mice were sacrificed at 20 weeks of age (Fig. 4A).
To evaluate the therapeutic potential of mPEG@ELA-11 NPs in vivo, a series of experiments were conducted using ApoE^-/- mice fed an HFD for 3 months to induce AS. The mice were randomly assigned to 4 groups (n = 6): a negative control group fed an NCD, an HFD group treated with PBS (HFD + PBS), an HFD group treated with free ELA-11 (HFD + ELA-11), and an HFD group treated with mPEG@ELA-11 NPs (HFD + mPEG@ELA-11). The administration route, frequency, and dosage were the same as described above.
Male ApoE^-/- mice (26 to 31 g, 8 weeks old) were obtained from GemPharmatech Co., Ltd. and housed under specific pathogen-free conditions. Mice were randomly allocated into 4 groups (n = 6/group): NCD, HFD + PBS, HFD + ELA-11, and HFD + mPEG@ELA-11. The HFD (Research Diets D12079B) consisted of 21% fat and 0.21% cholesterol. Drug treatments (1 mg/kg) were administered intraperitoneally every 3 days for 8 weeks, beginning at week 13. All animal procedures were approved by the institutional animal care committee.

[6] = Nanoparticle size by DLS and TEM; assay type: physicochemical
Experimental: The slight difference between DLS and TEM measurements is expected, as DLS measures the hydrodynamic diameter in solution, while TEM visualizes dehydrated NPs.
(§3) NP characterization was performed using FT-IR, NMR, DLS, and TEM. pH-responsive drug release was evaluated at pH values of 5.5, 6.5, and 7.4. For fluorescence imaging, NPs were labeled with ICG, Cy5 or Cy5.5.

[7] = Colloidal stability in physiological media over 5 days; assay type: physicochemical; conditions: mean ± SD
Experimental: The colloidal stability of mPEG@ELA-11 was evaluated in various physiological media over a 5-day period. The hydrodynamic diameter remained stable in PBS, serum, and 1640 culture medium, with only minor increases observed over time (Fig. 5E). On day 1, the sizes in PBS, serum, and 1640 medium were 36 ± 2.12, 43 ± 3.01, and 44 ± 4.53 nm, respectively. By day 5, these had increased slightly to 42 ± 3.36, 49 ± 3.49, and 50 ± 2.98 nm, respectively.

[8] = pH-responsive in vitro release of ELA-11; assay type: physicochemical
Experimental: To assess the pH-responsive release behavior of mPEG@ELA-11, in vitro release studies were conducted. […] At 12 h post-injection, only 45% of Cy5-mPEG@ELA-11 was degraded, while 70% of Cy5-ELA-11 had already been degraded.
as §3

ApoE^-/- mice [9] = experiment: Serum inflammatory markers and lipids in treated ApoE-/- mice; assay type: in vivo
From the text: At the study endpoint, mice were euthanized under isoflurane anesthesia. Blood was collected for biochemical analysis, and the entire aorta was harvested from the ascending aorta to the iliac bifurcation. For en face analysis, aortas were stained with Oil Red O. The aortic root was sectioned for histological analysis, including Oil Red O, H&E, Masson’s trichrome, and immunofluorescence staining for CD31 and α-SMA.

[10] = n = 6, P < 0.05, the words describe the HFD group, i.e. treated groups lower

In the case of `O=C(O)CCCc1ccccc1` [4-PBA, 4-phenylbutyric acid], the “foam cell formation (Oil Red O), rescue experiment” value (RAW264.7 macrophages [1]; ox-LDL 50 μg/ml 48 h, cotreatment, P < 0.0001 vs ox-LDL group) is reported as “comparable”.

In the case of `CSCC[C@H](NC(=O)[C@@H](N)CS)C(=O)N1CCC[C@H]1C(=O)N[C@@H](CC(C)C)C(=O)N[C@@H](Cc1cnc[nH]1)C(=O)N[C@@H](CO)C(=O)N[C@@H](CCCNC(=N)N)C(=O)N[C@H](C(=O)N1CCC[C@H]1C(=O)N[C@@H](Cc1ccccc1)C(=O)N1CCC[C@H]1C(=O)O)C(C)C` [ELA-11], the “cytotoxicity (cell viability assay)” value (RAW264.7 macrophages [2]) is reported as “no significant cytotoxicity”, the “histopathological changes in major organs (heart, liver, spleen, lungs, and kidneys)” value (ApoE^-/- mice [3]) is reported as “No significant histopathological changes” and the “tissue morphology of heart, liver, spleen, lungs, and kidneys (H&E), long-term toxicity” value (ApoE^-/- mice [3]) is reported as “no appreciable changes in tissue morphology”. The “changes in body weight” value (ApoE^-/- mice [3]) was “No significant histopathological changes in any of the organs or abnormal changes in body weight were observed”.

In the case of `O=C(Oc1coc(CSc2ncccn2)cc1=O)c1ccc([N+](=O)[O-])cc1` [ML221], the “effect of co-treatment on the protective (foam cell inhibiting) effect of ELA-11” value (shortened to “effect … (foam cell inhibiting) effect of ELA-11”) (RAW264.7 macrophages [1]) is reported as “significantly attenuated”, the “cytotoxicity (cell viability assay)” value (RAW264.7 macrophages [2]) is reported as “no significant cytotoxicity” and the “effect of co-treatment on the suppression of ER stress markers by ELA-11” value (from here on “effect … of ER stress markers by ELA-11”) [4] is reported as “partially reverse”. For the same molecule, the “effect of co-treatment on the inhibition of AKT signaling by ELA-11” value (AKT phosphorylation) was “attenuated”.

In the case of `O=C(O)c1ccc(/C=C/S(=O)(=O)Cc2ccc(Cl)cc2)cc1` [Recilisib], the “effect … (foam cell inhibiting) effect of ELA-11” value (RAW264.7 macrophages [1]) is reported as “reversed” and the “effect … of ER stress markers by ELA-11” value [4] is reported as “lost its inhibitory effect”.

In the case of Tunicamycin, the “effect … (foam cell inhibiting) effect of ELA-11” value (RAW264.7 macrophages [1]) is reported as “significantly attenuated”, the “cytotoxicity (cell viability assay)” value (RAW264.7 macrophages [2]; CCK-8, ox-LDL-induced Raw264.7 macrophages, concentrations employed in the study, 24 and 48 hours, n=4, p > 0.05 (Fig. S1)) is reported as “no significant cytotoxicity” and the “effect … of ER stress markers by ELA-11” value [4] is reported as “diminished”. The “effect of co-treatment on the inhibition of AKT signaling by ELA-11” value (AKT phosphorylation) was “maintained its inhibitory effect”.

For “methoxy polyethylene glycol@Elabela-11 [mPEG@ELA-11]”, the “necrotic core size in aortic root sections, compared to free ELA-11” value (ApoE^-/- mice [5]; 1 mg/kg i.p. every 3 days, H&E, n = 6, P < 0.05) was “more substantial decrease”, the “overall plaque area in aortic root sections, compared to free ELA-11” value (ApoE^-/- mice [5]; 1 mg/kg i.p. every 3 days, Oil Red O, n = 6, P < 0.001) was “more substantial decrease” and the “collagen content within the plaques (Masson's trichrome, aortic root)” value (ApoE^-/- mice [5]; 1 mg/kg i.p. every 3 days, n = 6, P < 0.0001, no significant difference between the 2 treatment groups) was “increased collagen content”. For the same molecule, the “atherosclerotic plaque area of the entire aorta (Oil Red O), compared to free ELA-11” value (ApoE^-/- mice [5]; 1 mg/kg i.p. every 3 days, n = 6, P < 0.001) was “greater reduction”, the “integrity of the vascular endothelium (CD31 immunofluorescence)” value (ApoE^-/- mice [5]; n = 6, P < 0.001, P < 0.0001) was “more effective than free ELA-11” and the “smooth muscle cell proliferation in the plaque area (α-SMA immunofluorescence)” value (ApoE^-/- mice [5]; vs ELA-11 and HFD + PBS group, n = 6, P < 0.05, P < 0.01) was “significantly inhibited smooth muscle cell proliferation”. For the same molecule, the “size (TEM)” value ([6]; dehydrated NPs) was ~ 25 nm, the “hydrodynamic diameter (DLS)” value ([6]; in PBS) was ~ 35 nm and the “hydrodynamic diameter, colloidal stability” value ([7]; 1640 culture medium, day 1) was 44 ± 4.53 nm. For the same molecule, the “hydrodynamic diameter, colloidal stability” value ([7]; 1640 culture medium, day 5) was 50 ± 2.98 nm, the “hydrodynamic diameter, colloidal stability” value ([7]; PBS, day 1) was 36 ± 2.12 nm and the “hydrodynamic diameter, colloidal stability” value ([7]; PBS, day 5) was 42 ± 3.36 nm. The “hydrodynamic diameter, colloidal stability” value ([7]; serum, day 1) was 43 ± 3.01 nm, the “hydrodynamic diameter, colloidal stability” value ([7]; serum, day 5) was 49 ± 3.49 nm and the “release of ELA-11” value ([8]; pH 5.5, after 48 h) was 91.2%. For the same molecule, the “release of ELA-11” value ([8]; pH 6.5, after 48 h) was 74.1%, the “release of ELA-11” value ([8]; pH 7.4, after 48 h) was 38.7% and the “IL-1β levels in blood serum” value (ApoE^-/- mice [9]; HFD, among the groups, n = 6) was “no significant differences”. For the same molecule, the “IL-6 in blood serum compared to the HFD group” value (ApoE^-/- mice [9]; HFD, n = 6, P < 0.05) was “significantly lower”, the “TNF-α in blood serum compared to the HFD group” value (ApoE^-/- mice [9]; HFD, n = 6, P < 0.05) was “significantly lower” and the “LDL-C: HFD group compared to the treatment group” value (ApoE^-/- mice [9]; [10]) was “significantly higher”. For the same molecule, the “total cholesterol: HFD group compared to the treatment group” value (ApoE^-/- mice [9]; [10]) was “significantly higher”, the “triglycerides: HFD group compared to the treatment group” value (ApoE^-/- mice [9]; [10]) was “significantly higher” and the “histopathological changes in major organs (heart, liver, spleen, lungs, and kidneys)” value (ApoE^-/- mice [3]) was “No significant histopathological changes”. For the same molecule, the “tissue morphology of heart, liver, spleen, lungs, and kidneys (H&E), long-term toxicity” value (ApoE^-/- mice [3]) was “no appreciable changes in tissue morphology” and the “changes in body weight” value (ApoE^-/- mice [3]) was “No significant histopathological changes in any of the organs or abnormal changes in body weight were observed”.
